Measured values published in patent US20230064990A1, “DOSING REGIMENS AND METHODS FOR TREATING CANCER” (Panbela Therapeutics, Inc., priority 2020, published 2023).
Several values for one entry are separate records, joined by “and”; a condition that tells them apart may be missing. Equal entries are not always repeated. Where two headings read alike, the source gives them in different places.

Columns and labels:
[1] = Phase 1a/1b study in combination with G and A, safety; format: in vivo, human
Experimental: (§1) G (1000 mg/m^2) and A (125 mg/m^2) were administered intravenously on Days 1, 8, and 15 of each cycle. […] PK was evaluated on day 1 of cycle 1. Efficacy was assessed by CA19-9 levels, objective response was assessed by RECIST criteria, progression-free survival (PFS) and overall survival (OS).
(§2) This is a multicenter, open label, Phase 1a/1b study to evaluate to evaluate the safety, tolerability, pharmacokinetics and efficacy of (S,S)-(HO)2DEHSPM when administered in combination with G and A as first-line therapy in pancreatic cancer patients previously untreated for metastatic disease. The objective was to determine a recommended Phase 2 dose. Using a modified 3+3 dose escalation scheme, cohorts of subjects were dosed with subcutaneous injections of (S,S)-(HO)2DEHSPM at 0.2, 0.4 or 0.6 mg/kg days 1-5 of each 28-day cycle. Gemcitabine (1000 mg/m^2) and A (125 mg/m^2) were administered intravenously on Days 1, 8, and 15 of each cycle. […] PK was evaluated on day 1 of cycle 1. Efficacy was assessed by objective response rate (ORR) using RECIST criteria and by changes in CA19-9 levels. Subjects were treated until disease progression or the development of dose-limiting toxicity. Based upon initial safety findings and preliminary signals of efficacy, the protocol was amended to evaluate progression-free survival (PFS) and overall survival (OS) and expand the study to up to 36 subjects at the recommended Phase 2 dose. To date, 20 subjects were enrolled in cohorts 1-3 and evaluated for dose limiting toxicity and early signals of efficacy.

[2] = Phase 1a/1b study in combination with G and A, pharmacokinetics; format: in vivo, human; settings: for Cmax / Tmax: human, plasma, subcutaneous
Experimental: as §1, §2

metastatic PDA = assay: Phase 1a/1b study in combination with G and A, efficacy (RECIST, CA19-9); format: in vivo, human
Experimental: as §1, §2

[3] = 4-week repeated dose toxicity study in rats; format: in vivo
Experimental: For the first-in-human (Phase 1a/1b) study, a starting dose of 0.05 mg/kg (1.8 mg/m^2) of (S,S)-(HO)2DEHSPM.4HCl was chosen as 1/10 the severely toxic dose (STD10) observed in a 4-week repeated dose toxicity study in rats (3 mg/kg/day; […]). This dose was chosen in accordance with the ICH S9 Guideline for the Nonclinical Development for Anti-Cancer Pharmaceuticals. For the Phase 1a/1b dosing schedule patients were administered up to 0.4 mg/kg/day Monday through Friday for 3 weeks for a total cumulative dose (TCD) of 6 mg/kg. In this animal experiment, one cycle consisted of 3 weeks of dosing and 5 weeks of rest for a total cycle length of 8 weeks.

clinical = settings: human, in vivo
Experimental: Safety and tolerability were evaluated by clinical and laboratory assessments. PK was evaluated on Days 1 and 18 of cycle 1. Efficacy was assessed by RECIST criteria and overall survival.

[4] = N=20, (S,S)-(HO)2DEHSPM with G + A
[5] = N=20, in combination with G + A
[6] = Cohorts 2 and 3, N=13 evaluable, with G and A
[7] = in combination with G+A, previously untreated metastatic PDA
[8] = interim, cohorts 2 and 3, with G and A

## CCNCCC(O)CNCCCCNCC(O)CCNCC [(S,S)-(HO)2DEHSPM, (6S,15S)-3,8,13,18-teraazaicosane-6,15-diol]
[1]; N=20
  Grade ≥3 Anemia related to the named study medication (subjects): 0
  Grade ≥3 Dehydration related to the named study medication (subjects): 0
  Grade ≥3 Delirium related to the named study medication (subjects): 0
  Grade ≥3 Dyspnea related to the named study medication (subjects): 0
  Grade ≥3 Elevated LFTs related to the named study medication (subjects): 4
  Grade ≥3 Elevated Lipase related to the named study medication (subjects): 1
  Grade ≥3 Fatigue related to the named study medication (subjects): 0
  Grade ≥3 Hiccups (Intractable) related to the named study medication (subjects): 0
  Grade ≥3 Hyponatremia related to the named study medication (subjects): 0
  Grade ≥3 Neutropenia related to the named study medication (subjects): 0
  Grade ≥3 Thrombocytopenia related to the named study medication (subjects): 0
[1]; [4]
  Grade ≥3 Anemia related to any study medication, Total (%): (15%)
  Grade ≥3 Anemia related to any study medication, Total N: 3
  Grade ≥3 Dehydration related to any study medication, Total (%): (5%)
  Grade ≥3 Dehydration related to any study medication, Total N: 1
  Grade ≥3 Delirium related to any study medication, Total (%): (5%)
  Grade ≥3 Delirium related to any study medication, Total N: 1
  Grade ≥3 Dyspnea related to any study medication, Total (%): (5%)
  Grade ≥3 Dyspnea related to any study medication, Total N: 1
  Grade ≥3 Elevated LFTs related to any study medication, Total (%): (20%)
  Grade ≥3 Elevated LFTs related to any study medication, Total N: 4
  Grade ≥3 Elevated Lipase related to any study medication, Total (%): (5%)
  Grade ≥3 Elevated Lipase related to any study medication, Total N: 1
  Grade ≥3 Fatigue related to any study medication, Total (%): (5%)
  Grade ≥3 Fatigue related to any study medication, Total N: 1
  Grade ≥3 Hiccups (Intractable) related to any study medication, Total (%): (5%)
  Grade ≥3 Hiccups (Intractable) related to any study medication, Total N: 1
  Grade ≥3 Hyponatremia related to any study medication, Total (%): (5%)
  Grade ≥3 Hyponatremia related to any study medication, Total N: 1
  Grade ≥3 Neutropenia related to any study medication, Total (%): (30%)
  Grade ≥3 Neutropenia related to any study medication, Total N: 6
  Grade ≥3 Thrombocytopenia related to any study medication, Total (%): (5%)
  Grade ≥3 Thrombocytopenia related to any study medication, Total N: 1
[1]; [5]
  Grade ≥ 3 Anemia, %: 15%
  Grade ≥ 3 Diarrhea, %: 0%
  Grade ≥ 3 Fatigue, %: 5%
  Grade ≥ 3 Leukopenia (G3-4), %: 15%
  Grade ≥ 3 Neutropenia (G3-4), %: 30%
  Grade ≥ 3 Peripheral Neuropathy, %: 0%
  Grade ≥ 3 Thrombocytopenia, %: 5%
[1]; N=20, with G+A
  Diarrhea, Grade 1 (related AE, subjects): 1
  Diarrhea, Grade 2 (related AE, subjects): 1
  Diarrhea, Grade 3 (related AE, subjects): 0
  Diarrhea, Grade 4 (related AE, subjects): 0
  Diarrhea, Grade 5 (related AE, subjects): 0
  Diarrhea, Total (%) (related AE): 10%
  Diarrhea, Total N (related AE): 2
  Elevated Liver Function Tests (LFTs), Grade 1 (related AE, subjects): 0
  Elevated Liver Function Tests (LFTs), Grade 2 (related AE, subjects): 0
  Elevated Liver Function Tests (LFTs), Grade 3 (related AE, subjects): 3
  Elevated Liver Function Tests (LFTs), Grade 4 (related AE, subjects): 1
  Elevated Liver Function Tests (LFTs), Grade 5 (related AE, subjects): 0
  Elevated Liver Function Tests (LFTs), Total (%) (related AE): 20%
  Elevated Liver Function Tests (LFTs), Total N (related AE): 4
  Fatigue, Grade 1 (related AE, subjects): 4
  Fatigue, Grade 2 (related AE, subjects): 3
  Fatigue, Grade 3 (related AE, subjects): 1
  Fatigue, Grade 4 (related AE, subjects): 0
  Fatigue, Grade 5 (related AE, subjects): 0
  Fatigue, Total (%) (related AE): 40%
  Fatigue, Total N (related AE): 8
  Injection site pain, Grade 1 (related AE, subjects): 4
  Injection site pain, Grade 2 (related AE, subjects): 0
  Injection site pain, Grade 3 (related AE, subjects): 0
  Injection site pain, Grade 4 (related AE, subjects): 0
  Injection site pain, Grade 5 (related AE, subjects): 0
  Injection site pain, Total (%) (related AE): 20%
  Injection site pain, Total N (related AE): 4
  Nausea, Grade 1 (related AE, subjects): 1
  Nausea, Grade 2 (related AE, subjects): 1
  Nausea, Grade 3 (related AE, subjects): 0
  Nausea, Grade 4 (related AE, subjects): 0
  Nausea, Grade 5 (related AE, subjects): 0
  Nausea, Total (%) (related AE): 10%
  Nausea, Total N (related AE): 2
[1]; interim, one patient in cohort 2 (0.4 mg/kg), with G and A
  liver enzyme elevation: grade 3-4 reversible liver enzyme elevation
[1]; interim, with G and A
  (S,S)-(HO)2DEHSPM-related bone marrow suppression or peripheral neuropathy: no evidence of (S,S)-(HO)2DEHSPM-related bone marrow suppression or peripheral neuropathy
[1]; when administration was interrupted and dose-reduced or discontinued
  reversibility of (S,S)-(HO)2DEHSPM-related increases in liver toxicity: reversed in all but one subject
[2]; cohort 1 (0.2 mg/kg), day 1 of cycle 1
  PK parameters: below the limits of detection at most time points
[2]; sc, Cohort 1 (0.2 mg/kg) N=4, day 1 of cycle 1, read-out: Cmax Mean
  Cmax: 26.6 ng/mL
[2]; sc, Cohort 2 (0.4 mg/kg) N=7, day 1 of cycle 1, read-out: Cmax Mean
  Cmax: 115 ng/mL
[2]; sc, Cohort 3 (0.6 mg/kg) N=5, day 1 of cycle 1, read-out: Cmax Mean
  Cmax: 147 ng/mL
[2]; Cohort 1 (0.2 mg/kg) N=4
  Tmax: 30 min
[2]; Cohort 1 (0.2 mg/kg) N=4, read-out: Cmax Range
  Cmax: 13.2 to 41.6 ng/mL
[2]; Cohort 2 (0.4 mg/kg) N=7
  Tmax: 30 min
[2]; Cohort 2 (0.4 mg/kg) N=7, read-out: Cmax Range
  Cmax: 77.1 to 167 ng/mL
[2]; Cohort 3 (0.6 mg/kg) N=5
  Tmax: 30 min
[2]; Cohort 3 (0.6 mg/kg) N=5, read-out: Cmax Range
  Cmax: 91.9 to 195 ng/mL
Metastatic PDA; [6]
  Best response PR, number of evaluable subjects: 8
  Best response PR, percent of evaluable subjects: 62%
  Best response SD, number of evaluable subjects: 5
  Best response SD, percent of evaluable subjects: 38%
Metastatic PDA; cohorts 2 and 3, N=16, with G and A
  subjects with CA 19-9 maximum decrease greater than 60%: 69%
Metastatic PDA; [7]
  DCR: 85%
  ORR: 62%
Metastatic PDA; interim, cohorts 2 and 3, 7 of 8 evaluable subjects, with G and A
  CA19-9 levels decreased: 76-95%
Metastatic PDA; [8]
  Stable disease: 1
  partial responses: 5 patients
[3]
  severely toxic dose (STD10): 3 mg/kg/day
clinical
  MTD at 3 weeks: < 0.8 mg/kg and < 0.8 mg/kg/day
